“And” between values parts separate entries of the source, which are not always exact repeats. Identical values can stand only once.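 Five concentrations, 48 hours, 96-well plates. The concentration for 50% growth inhibition is given as GI50.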 The source made the active and inactive calls. No stated cut-off is given here; in the data, active = GI50 up to about 1.1 µM and inactive = higher.
Experiments:
Assay in all cases: growth of human tumour cells (NCI), 48 h
HCC 2998 = tested on: HCC 2998
OVCAR-3 = tested on: OVCAR-3
CCRF-CEM = tested on: CCRF-CEM
A498 = tested on: A498
Malme-3M = tested on: Malme-3M
786-0 = tested on: 786-0
ACHN = tested on: ACHN
SN12C = tested on: SN12C
SF-295 = tested on: SF-295
MDA-MB-231 = tested on: MDA-MB-231
HL-60 = tested on: HL-60
HT-29 = tested on: HT-29
T47D = tested on: T47D
NCI-H23 = tested on: NCI-H23
SNB-19 = tested on: SNB-19
HOP-92 = tested on: HOP-92
SK-MEL-28 = tested on: SK-MEL-28
SK-MEL-2 = tested on: SK-MEL-2
SW-620 = tested on: SW-620
CAKI-1 = tested on: CAKI-1

SMILES	GI50 (HCC 2998)	GI50 (OVCAR-3)	GI50 (CCRF-CEM)	GI50 (A498)	GI50 (Malme-3M)	GI50 (786-0)	GI50 (ACHN)	GI50 (SN12C)	GI50 (SF-295)	GI50 (MDA-MB-231)	GI50 (HL-60)	GI50 (HT-29)	GI50 (T47D)	GI50 (NCI-H23)	GI50 (SNB-19)	GI50 (HOP-92)	GI50 (SK-MEL-28)	GI50 (SK-MEL-2)	GI50 (SW-620)	GI50 (CAKI-1)
O=C(/C(=C\I)c1ccccc1)c1ccccc1	3.94 µM (inactive)	2.24 µM (inactive)	14.5 µM (inactive)	16.5 µM (inactive)	7.31 µM (inactive)	3.52 µM (inactive)	13 µM (inactive)	18 µM (inactive)	16.9 µM (inactive)	3.94 µM (inactive)	458 nM (active)	1.93 µM (inactive)	4.14 µM (inactive)	9.89 µM (inactive)	8.95 µM (inactive)	13.7 µM (inactive)	2.16 µM (inactive)	7.8 µM (inactive)	4.57 µM (inactive)	1.51 µM (inactive)
CCCC(=O)OCC1OC(n2cc(F)c(=O)[nH]c2=O)C(F)C1O (stereo not given)	> 100 µM (inactive)	31 µM (inactive)	2.24 µM (inactive)	8.39 µM (inactive)	> 80 µM (inactive)	30.6 µM (inactive)	10.9 µM (inactive)	> 82.8 µM (inactive)	> 27.5 µM (inactive)	38.1 µM (inactive)	> 100000 nM (inactive)	> 86.3 µM (inactive)	> 100 µM (inactive)	> 88.7 µM (inactive)	78.5 µM (inactive)	> 100 µM (inactive)	> 100 µM (inactive)	> 100 µM (inactive)	> 100 µM (inactive)	> 10 µM (inactive)
CCC(C)C1=C(O)[N+]2([O-])Oc3ccc(-c4c(O)c(O)c(-c5ccc(OC(C)=O)cc5)c(OC(C)=O)c4OC(C)=O)cc3OC2(C(C)CC)C(=O)N1O (stereo not given)	11.9 µM (inactive)	> 50 µM (inactive)	19.3 µM (inactive) and 19.2 µM (inactive)	19.3 µM (inactive)	34.6 µM (inactive) and 45.2 µM (inactive)	> 50 µM (inactive)	> 50 µM (inactive)	42.9 µM (inactive)	> 50 µM (inactive)	> 50 µM (inactive)	24 µM (inactive) and 27.4 µM (inactive)	> 50 µM (inactive)	42.7 µM (inactive)	> 50 µM (inactive)	> 50 µM (inactive)	8.17 µM (inactive) and 10 µM (inactive)	46.1 µM (inactive)	> 50 µM (inactive)	24.2 µM (inactive)	> 50 µM (inactive)
